Twelve compounds from PubChem BioAssay (NCI) can be followed below.

Some test systems named below: UACC-62 melanoma; DU-145 prostate; NCI/ADR-RES ovarian; SW-620 colon; MDA-MB-231 breast; PC-3 prostate; HCT-15 colon; MDA-N; CAKI-1 renal; NCI-H23 lung; TK-10 renal; ACHN renal; NCI-H522 lung; OVCAR-3 ovarian; HCC-2998 colon; OVCAR-5 ovarian; U251 CNS; T-47D breast; SNB-19 CNS.
Test in all cases: NCI anticancer screen, dose series, 48 h

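These data come from cells grown in 96-well plates and exposed to compound for 48 hours at five concentrations. TGI marks complete inhibition of growth.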

With `COc1ccc2c(c1)c1c(n2CCN2CCOCC2)-c2cccc(OC)c2CC1`, the TGI with UACC-62 melanoma, with DU-145 prostate, in the test with NCI/ADR-RES ovarian, in the test with SW-620 colon, in the test on MDA-MB-231 breast and with PC-3 prostate was > 100 µM in each case. Moreover, the TGI with HCT-15 colon, with MDA-N, in the test on CAKI-1 renal, with NCI-H23 lung, with TK-10 renal and with ACHN renal was > 100 µM each time. Moreover, the TGI with NCI-H522 lung was 89 µM; in the test with OVCAR-3 ovarian it was > 100 µM; with HCC-2998 colon it was 63.4 µM; in the test with OVCAR-5 ovarian, > 100 µM; with U251 CNS it was > 100 µM; with T-47D breast, > 100 µM.

In the case of `CC(C)(C)c1cc2c(c(C(C)(C)C)c1O)CC(=O)O2`, the TGI in the test on UACC-62 melanoma is 77.5 µM; in the test on DU-145 prostate it was > 100 µM; in the test on NCI/ADR-RES ovarian it was 54.7 µM; in the test on SW-620 colon it was > 100 µM; in the test on MDA-MB-231 breast, 75.4 µM; in the test on PC-3 prostate, 76.1 µM. In addition, the TGI in the test on HCT-15 colon is > 100 µM; in the test with MDA-N, > 100 µM; with NCI-H23 lung it was 59.3 µM; with TK-10 renal, > 100 µM; with ACHN renal, 55.5 µM; in the test with NCI-H522 lung it was > 100 µM. For the same compound, the TGI with OVCAR-3 ovarian is 50.7 µM; in the test with HCC-2998 colon it was 96.7 µM; with OVCAR-5 ovarian, > 100 µM; with U251 CNS, > 100 µM; in the test with T-47D breast it was 64.7 µM; in the test on SNB-19 CNS it was > 100 µM.

Consider `Cc1c[nH]c(C(=O)O)c1-c1cccn1-c1ccc(Cl)cc1[N+](=O)[O-]`, for which the TGI with UACC-62 melanoma, in the test on DU-145 prostate, in the test on NCI/ADR-RES ovarian, with SW-620 colon, in the test with MDA-MB-231 breast and in the test on PC-3 prostate was > 100 µM each time. The TGI with HCT-15 colon, with MDA-N, in the test with CAKI-1 renal, in the test on NCI-H23 lung, with TK-10 renal and with ACHN renal was > 100 µM in each case. The TGI with NCI-H522 lung, in the test on OVCAR-3 ovarian, with HCC-2998 colon, with OVCAR-5 ovarian, with U251 CNS and in the test on T-47D breast was > 100 µM in each case.

In the case of `CC(=O)N1c2ccccc2C2=NN(C)C(=N)SC21` (centres undefined), the TGI in the test on DU-145 prostate, in the test on NCI/ADR-RES ovarian, with SW-620 colon, in the test with MDA-MB-231 breast, in the test with PC-3 prostate and with HCT-15 colon was > 100 µM throughout. Besides, the TGI in the test on MDA-N, in the test with NCI-H23 lung, in the test on TK-10 renal, in the test with ACHN renal, in the test with NCI-H522 lung and in the test on OVCAR-3 ovarian was > 100 µM in each case. The TGI in the test with HCC-2998 colon, in the test with OVCAR-5 ovarian, with U251 CNS, with T-47D breast and in the test on SNB-19 CNS was > 100 µM in each case.

Turning to `Cc1cn(C2C=CC(COP(=O)(OCc3ccc([N+](=O)[O-])o3)N(C)CCCCCl)O2)c(=O)[nH]c1=O` (centres undefined), the TGI was 17.3 µM in the test with UACC-62 melanoma; 26.1 µM in the test on DU-145 prostate; > 100 µM in the test on NCI/ADR-RES ovarian; 27.1 µM in the test with SW-620 colon; 25.9 µM in the test on MDA-MB-231 breast; 27.8 µM in the test on PC-3 prostate. For the same compound, the TGI was 35.7 µM in the test on HCT-15 colon; 11.8 µM in the test on MDA-N; 37 µM with CAKI-1 renal; 10.7 µM in the test on NCI-H23 lung; 34.3 µM with TK-10 renal; 28.6 µM in the test on ACHN renal. Also, the TGI turned out to be 3.97 µM in the test with NCI-H522 lung; 4.8 µM in the test with OVCAR-3 ovarian; 30.9 µM in the test on OVCAR-5 ovarian; 18.2 µM in the test with U251 CNS; 7.05 µM in the test on T-47D breast; 21.3 µM in the test on SNB-19 CNS.

Turning to `COC(=O)C1CCC(=O)N1CN(C(C)=O)c1cc(OC)ccc1OC` (centres undefined), the TGI with UACC-62 melanoma, with DU-145 prostate, in the test on NCI/ADR-RES ovarian, in the test with SW-620 colon, in the test on MDA-MB-231 breast and in the test on PC-3 prostate was > 100 µM each time. Also, the TGI in the test on HCT-15 colon, in the test with MDA-N, in the test on CAKI-1 renal, in the test with NCI-H23 lung, in the test on TK-10 renal and in the test on ACHN renal was > 100 µM throughout. Moreover, the TGI in the test with NCI-H522 lung, in the test with OVCAR-3 ovarian, with OVCAR-5 ovarian, in the test on U251 CNS, in the test on T-47D breast and in the test with SNB-19 CNS was > 100 µM each time.

Turning to `CN1CC(c2ccccc2)C(O)(C2(c3ccccc3)CN(C)CC(c3ccccc3)C2=O)C(c2ccccc2)C1` (centres undefined), the TGI with UACC-62 melanoma, with DU-145 prostate, in the test with NCI/ADR-RES ovarian, in the test on SW-620 colon, in the test on MDA-MB-231 breast and with PC-3 prostate was > 100 µM each time. The TGI in the test with HCT-15 colon, in the test with MDA-N, in the test on CAKI-1 renal, in the test on NCI-H23 lung, in the test with TK-10 renal and with ACHN renal was > 100 µM throughout. The TGI in the test on NCI-H522 lung, in the test with OVCAR-3 ovarian, with OVCAR-5 ovarian, in the test on U251 CNS, in the test with T-47D breast and in the test on SNB-19 CNS was > 100 µM throughout.

`CCOC(=O)c1nc2ccccc2nc1NCc1ccc(OC)c(OC)c1`: the TGI in the test on UACC-62 melanoma, in the test on DU-145 prostate, in the test on NCI/ADR-RES ovarian, in the test with SW-620 colon, in the test with MDA-MB-231 breast and in the test with PC-3 prostate was > 100 µM each time. Moreover, the TGI with HCT-15 colon, with MDA-N, in the test on CAKI-1 renal, in the test with NCI-H23 lung, in the test with TK-10 renal and with ACHN renal was > 100 µM each time. Besides, the TGI with NCI-H522 lung, in the test with OVCAR-3 ovarian, with HCC-2998 colon, with OVCAR-5 ovarian, with U251 CNS and with T-47D breast was > 100 µM in each case.

Turning to `COc1cc2cc(C(=O)N3CC(CCl)c4ccc([N+](C)(C)Cc5ccc([N+](=O)[O-])cc5)cc43)[nH]c2c(OC)c1OC` (centres undefined), the TGI in the test with UACC-62 melanoma was 4.69 µM; with DU-145 prostate it was 10.8 µM; in the test on NCI/ADR-RES ovarian it was 4.17 µM; in the test on SW-620 colon, 6.18 µM; in the test on MDA-MB-231 breast, 46.6 µM; with PC-3 prostate it was 16.3 µM. In addition, the TGI with HCT-15 colon was found to be 31 µM; in the test with MDA-N, 16.5 µM; in the test with CAKI-1 renal it was 5.64 µM; with NCI-H23 lung, 3.52 µM; in the test on ACHN renal it was 7.12 µM; with NCI-H522 lung, 3.47 µM. Also, the TGI in the test with OVCAR-3 ovarian is 7.16 µM; with HCC-2998 colon, 2.95 µM; with OVCAR-5 ovarian, > 100 µM; with U251 CNS, 7.36 µM; with T-47D breast it was 66.2 µM; in the test on SNB-19 CNS, 60 µM.

On to `O=S(=O)(O)c1cc(S(=O)(=O)O)c2cc(N=Nc3c(O)ccc4ccccc34)ccc2c1`, for which the TGI with UACC-62 melanoma, with DU-145 prostate, in the test with NCI/ADR-RES ovarian, in the test on SW-620 colon, with MDA-MB-231 breast and with PC-3 prostate was > 100 µM throughout. Also, the TGI in the test with HCT-15 colon, in the test on MDA-N, in the test on CAKI-1 renal, in the test with NCI-H23 lung, with TK-10 renal and in the test with ACHN renal was > 100 µM throughout. The TGI with NCI-H522 lung, in the test with OVCAR-3 ovarian, with OVCAR-5 ovarian, in the test on U251 CNS, in the test with T-47D breast and with SNB-19 CNS was > 100 µM throughout.

For the compound `COc1ccc2c(c1)CC1COc3cc(OC)ccc3C1O2` (centres undefined), the TGI in the test on UACC-62 melanoma, with DU-145 prostate, in the test on NCI/ADR-RES ovarian, with SW-620 colon, in the test on MDA-MB-231 breast and in the test with PC-3 prostate was > 100 µM throughout. Besides, the TGI with HCT-15 colon, with MDA-N, in the test with CAKI-1 renal, in the test with NCI-H23 lung, in the test with TK-10 renal and in the test on NCI-H522 lung was > 100 µM in each case. For the same compound, the TGI in the test with OVCAR-3 ovarian, with HCC-2998 colon, with OVCAR-5 ovarian, in the test on U251 CNS and in the test on T-47D breast was > 100 µM throughout.

As for `O=C1CCC(=O)N1CNc1ccc2c(c1)S(=O)(=O)c1ccccc1O2`, the TGI in the test with UACC-62 melanoma, in the test with DU-145 prostate, with NCI/ADR-RES ovarian, in the test on SW-620 colon, with MDA-MB-231 breast and in the test with PC-3 prostate was > 100 µM throughout. Also, the TGI in the test on HCT-15 colon, with MDA-N, in the test on CAKI-1 renal, with NCI-H23 lung, with TK-10 renal and with ACHN renal was > 100 µM each time. Besides, the TGI in the test on NCI-H522 lung, in the test with OVCAR-3 ovarian, in the test on OVCAR-5 ovarian, with U251 CNS, in the test with T-47D breast and in the test on SNB-19 CNS was > 100 µM throughout.
